# Columns and labels:
# [1] = test system: rat; conditions: rat lung transplantation; cited from earlier work
# [2] = test system: CD4+ T cells; test: anti-CD3 induced T cell proliferation (3H thymidine incorporation), CD4+ T cells; assay type: cell-based, mouse
# Protocol: (§1) The non-specific MMP inhibitor, 1,10-phenanthroline (Sigma, St. Louis, Mo.) was reconstituted to 1 M solution in dimethyl sulfoxide (DMSO) and diluted to 0.001-0.1 μM in complete RPMI (cRPMI), composed of RPMI, […] L-glutamine, 100 U penicillin streptomycin (Gibco, Carlsbad, Calif.), 10% FCS (Hyclone, Logan, Utah), and 5×10^−5 M 2-mercaptoethanol (Sigma, St. Louis, Mo.).
# (§2) CD4^+ or CD8^+ T cells were isolated from wild-type Balb/c or C57BL/6 mice (1×10^6/ml) and incubated with the indicated concentrations of MMPIs or vehicle control for 6 hours. The treated cells were then washed three times in RPMI and cultured (1×10^5/well) in a 96 well plate in 200 μl of cRPMI in the presence of anti-CD3 antibody (0.5-1 μg/ml, BD Biosciences, San Jose, Calif.) at 37° C. for 72 hours and harvested as previously reported (Sumpter et al., 2008). This generalized protocol was used to measure T cell proliferation of CD4^+ and CD8^+ T cells following the various isolation methods and treatment conditions indicated. In MMP deficient parallel studies, MMP2−/−, MMP9−/−, MMP2/9−/− mice and littermate controls were cultured in the presence of anti-CD3 antibody for 72 h. […] The cells were washed three times in RPMI and added at varying ratios (treated: untreated) in co-culture with untreated CD4^+25− T cells in the presence of γ-irradiated antigen presenting cells in 200 μl of cRPMI at 37° C. for 72 hours and harvested as previously reported (Sumpter et al., 2008).
# [3] = test system: Wistar-Kyoto rat; conditions: rat ischemia reperfusion injury, Iwata et al. 2008; cited from earlier work
# [4] = test system: T cells; test: cell viability after 1,10-phenanthroline treatment; assay type: cell-based, mouse; conditions: high phenanthroline concentrations
# [5] = test system: IL-2; test: IL-2 protein expression by cytometric bead array; assay type: cell-based, mouse; conditions: 10 μM, various time points, anti-CD3, CD4+ T cells (FIG. 6C, D)
# Protocol: Purified MMP9 deficient or SB-3CT-treated (10 μM) CD4^+ T cells were incubated for 6 hours and then washed three times with RPMI 1640. MMP9 deficient or SB-3CT-treated T cells were cultured (1×10^6/ml) with anti-CD3 antibody (0.5 μg/ml) in cRPMI for 1-12 hours. Supernatants were collected and cytokine protein levels were measured using the Mouse Inflammatory Cytokine Bead Array Kit (BD Biosciences, San Jose, Calif.) according to the manufacturer's instructions.
# [6] = test system: CC10-OVA mice; test: antigen-specific CD8+ T cell mediated lung injury, adoptive transfer of treated OT-I cells into CC10-OVA mice; assay type: in vivo, mouse
# Protocol: Lymph node and spleen were isolated from Thy1.1^+ OT-I transgenic mice and splenic CD8^+ T cells were isolated as stated above. […] 5×10^7 γ-irradiated wild-type splenocytes were cultured in 30 ml of 10% DMEM supplemented with 0.7 μg/ml of OVA peptide ([…]) for 5 min, followed by the addition of OT-1 Thy1.1^+ CD8^+ T cells (5×10^6), anti-CD28 antibody (2 μg/ml), IL-2 (132.02 U/ml) and IL-12 (10 ng/ml). On day 3, the cells were split and supplemented with more IL-2 (25 U/ml) in a final volume of 30 ml. On day 5, cells were harvested and prepared for adoptive transfer into CC10-OVA mice. Cells were resuspended in PBS, and 7.5×10^5 cells were intratracheally instilled into the lungs of CC10-OVA mice.
# The lung was finely minced on ice, followed by a 60-90 minute digestion at 37° C. with collagenase/dispase (0.2 mg/ml of each) in RPMI medium with 5% fetal calf serum (FCS), in the presence of 25 μg/ml DNase. Cells were passed through a 70 μm cell strainer, washed, and lung lymphocytes were isolated by density centrifugation. Cells were resuspended in FACS buffer (10% BSA in PBS) and analyzed immediately on a FACScan flow cytometer (Beckton Dickinson). FCS Express (DeNovo Software, Los Angeles, Calif.) was used for further analysis.
# BAL was collected from the lungs of wild-types and CC10 mice following adoptive transfer of vehicle and SB-3CT-treated OT-1 Tg T cells, by washing the mouse lung with 1.0 ml of sterile 1×PBS. Collected fluid was then centrifuged for 10 minutes at 2000 rpm. Cell pellets were resuspended in 200 μl of sterile 1×PBS. Cells were then stained with anti-GR1 antibody and analyzed immediately on a FACScan flow cytometer (Beckton Dickinson). FCS Express (DeNovo Software, Los Angeles, Calif.) was used for further analysis.
# Lungs were perfused, inflated and fixed with neutral buffered formalin. The sections were then embedded in paraffin, sectioned, and stained with hematoxylin and eosin. Images were acquired at 20× using an Olympus microscope and DP12 digital camera (Olympus, Center Valley, Pa.).
# [7] = target: T1, MMP9 (Mus musculus, UniProt P41245); test: MMP9 protein expression by gelatin zymography in CD8+ T cells; assay type: cell-based; conditions: 10 μM
# T1 construct: Cell lysates and conditioned media supernatant were collected, concentrated to 4× and centrifuged; endogenous in cells; host or cells: primary splenic CD8+ T cells from wild-type C57BL/6 mice
# T1 sequence (P41245 108-730): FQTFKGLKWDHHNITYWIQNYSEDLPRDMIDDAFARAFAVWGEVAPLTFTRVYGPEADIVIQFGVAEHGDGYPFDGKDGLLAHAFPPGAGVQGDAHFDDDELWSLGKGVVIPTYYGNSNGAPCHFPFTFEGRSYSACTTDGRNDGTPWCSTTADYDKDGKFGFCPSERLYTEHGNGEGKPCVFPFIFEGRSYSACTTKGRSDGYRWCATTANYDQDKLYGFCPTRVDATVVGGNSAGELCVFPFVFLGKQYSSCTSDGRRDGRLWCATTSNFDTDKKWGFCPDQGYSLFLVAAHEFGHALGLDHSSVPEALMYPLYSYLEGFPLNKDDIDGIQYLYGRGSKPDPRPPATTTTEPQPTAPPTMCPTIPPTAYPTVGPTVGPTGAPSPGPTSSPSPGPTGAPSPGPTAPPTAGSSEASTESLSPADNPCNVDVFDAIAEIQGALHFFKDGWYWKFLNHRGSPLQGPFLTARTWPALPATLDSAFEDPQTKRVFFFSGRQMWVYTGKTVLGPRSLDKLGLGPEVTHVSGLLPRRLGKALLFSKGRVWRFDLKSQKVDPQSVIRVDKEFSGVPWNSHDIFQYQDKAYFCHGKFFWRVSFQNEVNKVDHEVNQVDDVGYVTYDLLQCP
# Protocol: Cell lysates and conditioned media supernatant were collected, concentrated to 4× and centrifuged to remove any cell debris, and stored at −80° C. prior to assay. Samples were then subjected to zymography as reported previously (Yoshida et al., 2007).
# [8] = test system: IL-2; test: IL-2 transcript expression by quantitative RT PCR; assay type: cell-based, mouse; conditions: 10 μM, various time points, anti-CD3, CD4+ T cells (FIG. 6C, D)
# Protocol: (§3) Purified CD4^+ T cells were incubated with the indicated concentrations of SB3-CT for 6 hours and then washed three times with RPMI 1640. Drug or vehicle-treated T cells were cultured (1×10^6/ml) with anti-CD3 antibody (0.5 μg/ml) in cRPMI for 1-12 hours. Cells were collected and total RNA was isolated using an RNeasy RNA extraction kit (Qiagen, Inc., Valencia, Calif.) and mRNA expression levels were detected with PerfeCTa™ SYBR Green FastMix, Low ROX (Quanta Biosciences, Gaithersburg, Md.) on a Applied Biosystems 7500 according to the manufacturer's instructions. Each sample was normalized to murine β-actin. Primer sequences were designed and optimized using routine methodologies to specifically amplify each cytokine based on publicly available sequences.
# [9] = test system: CD8+ T cells; test: anti-CD3 induced intracellular calcium flux (Fluo-4 NW); assay type: cell-based, mouse; conditions: 10 μM
# Protocol: Calcium flux was measured in CD4^+ and CD8^+ wild-type or MMP9 deficient or SB-3CT-treated (10 μM) T cells using the Fluo-4 NW Calcium Assay kit (Molecular Probes, Carlsbad, Calif.) in accord with the manufacturer's protocol. Cells were then stimulated with anti-CD3 antibody (10 μg/ml) and read in real time on a Molecular Devices FlexStation I (Sunnyvale, Calif.) for 300 seconds.
# [10] = test system: CD25; test: CD25 transcript expression by quantitative RT PCR in CD4+ T cells; assay type: cell-based, mouse; conditions: 5-20 μM, anti-CD3, vs vehicle (FIG. 5D)
# Protocol: as §3
# [11] = test system: CD8+ T cells; test: anti-CD3 induced T cell proliferation (3H thymidine incorporation), CD8+ T cells; assay type: cell-based, mouse
# Protocol: as §1
# CD4^+ or CD8^+ T cells were isolated from wild-type Balb/c or C57BL/6 mice (1×10^6/ml) and incubated with the indicated concentrations of MMPIs or vehicle control for 6 hours. The treated cells were then washed three times in RPMI and cultured (1×10^5/well) in a 96 well plate in 200 μl of cRPMI in the presence of anti-CD3 antibody (0.5-1 μg/ml, BD Biosciences, San Jose, Calif.) at 37° C. for 72 hours and harvested as previously reported (Sumpter et al., 2008). This generalized protocol was used to measure T cell proliferation of CD4^+ and CD8^+ T cells following the various isolation methods and treatment conditions indicated. In MMP deficient parallel studies, MMP2−/−, MMP9−/−, MMP2/9−/− mice and littermate controls were cultured in the presence of anti-CD3 antibody for 72 h. […]
# [12] = test system: CD4+25− T cells; test: T cell suppressor assay with SB-3CT-treated CD4+25− T cells; assay type: cell-based, mouse
# Protocol: as §2
# [13] = target: MMP9 (Homo sapiens, UniProt P14780); conditions: Brown et al., 2000, Toth et al., Forbes et al., 2009; cited from earlier work
# MMP9 (Homo sapiens, UniProt P14780), sequence (P14780 94-707): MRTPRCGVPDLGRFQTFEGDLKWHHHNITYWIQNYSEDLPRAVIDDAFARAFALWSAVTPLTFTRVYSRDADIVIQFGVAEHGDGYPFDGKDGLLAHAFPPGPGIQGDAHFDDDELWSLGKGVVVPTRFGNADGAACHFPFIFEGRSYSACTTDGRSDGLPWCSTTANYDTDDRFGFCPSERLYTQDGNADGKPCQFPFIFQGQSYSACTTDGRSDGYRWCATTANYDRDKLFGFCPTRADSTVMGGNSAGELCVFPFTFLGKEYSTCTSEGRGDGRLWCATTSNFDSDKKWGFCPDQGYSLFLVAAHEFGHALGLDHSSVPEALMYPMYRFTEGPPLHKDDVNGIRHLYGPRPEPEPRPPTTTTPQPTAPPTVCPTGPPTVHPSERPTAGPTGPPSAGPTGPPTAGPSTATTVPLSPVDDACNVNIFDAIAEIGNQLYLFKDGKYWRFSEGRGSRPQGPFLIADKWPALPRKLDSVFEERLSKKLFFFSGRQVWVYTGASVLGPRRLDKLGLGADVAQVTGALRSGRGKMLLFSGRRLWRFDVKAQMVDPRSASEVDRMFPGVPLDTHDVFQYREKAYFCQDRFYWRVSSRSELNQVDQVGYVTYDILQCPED
# [14] = test system: OT-I transgenic CD8+ T cells; test: antigen-specific proliferation of OT-I transgenic CD8+ T cells with OVA-pulsed APCs; assay type: cell-based, mouse; conditions: 5-20 μM, SIINFEKL-pulsed APCs, 72 hours (FIG. 8A)
# [15] = test system: T cells; test: cell viability by trypan blue exclusion and annexin V staining after SB-3CT; assay type: cell-based, mouse; conditions: following treatment with SB-3CT
# Text: The data described in the Examples herein thus far raise the possibility that SB-3CT-induced cytotoxicity or anergy could account for the observed effects on proliferation.
# [16] = test system: CD4+25+ T cells (Tregs); test: T cell suppressor assay with SB-3CT-treated CD4+25+ T cells (Tregs); assay type: cell-based, mouse; conditions: 10 μM treated CD4+25+ T cells, varying ratios (FIG. 7E)
# Protocol: as §2
# [17] = test system: Foxp3; test: Foxp3 transcript expression by quantitative RT PCR in CD4+ T cells; assay type: cell-based, mouse; conditions: 10 μM, anti-CD3, CD4+ T cells (FIG. 7B)
# Protocol: as §3
# [18] = test system: NFATc1; test: NFATc1 transcript expression by quantitative RT PCR in CD4+ T cells; assay type: cell-based, mouse; conditions: 5-20 μM, anti-CD3, vs vehicle (FIG. 5C)
# Protocol: as §3
compound,measurement,setting,value
TIMP-1: tissue-inhibitor of metalloproteinases,delayed type hypersensitivity responses to donor antigens and type V collagen,[1],differential effects
same,rejection pathology,[1],neither affected the onset of rejection pathology
NC(=O)C1=C(O)C[C@@H]2C[C@@H]3Cc4cccc(O)c4C(=O)C3=C(O)[C@]2(O)C1=O [COL-3],T cell proliferation,"[2]; 1 μM, 6 hours, then anti-CD3 72 hours (FIG. 2B)",proliferative response similar to the untreated control
same,T cell proliferation,"[2]; higher doses (up to 100 μM), p<0.001 (FIG. 2B)",dose-dependent decrease in T cell proliferation
same,antigenic collagen (V) in bronchoalveolar lavage,[3],lower levels
same,inflammation factors,[3],reduced inflammation factors
same,intragraft B cell hyperplasia,[1],induce intragraft B cell hyperplasia
"c1cnc2c(c1)ccc1cccnc12 [1,10-phenanthroline]",cell viability after treatment,[4],cells were viable after treatment
same,T cell proliferation,"[2]; 0.001 μM, 6 hours, then soluble anti-CD3 antibody 72 hours (FIG. 2A)",proliferative response similar to untreated anti-CD3 antibody stimulated cells
same,T cell proliferation,"[2]; higher doses (up to 0.1 μM), 6 hours, then anti-CD3 72 hours, p<0.001 (FIG. 2A)",significantly abrogated the proliferative response
O=S(=O)(CC1CS1)c1ccc(Oc2ccccc2)cc1 (stereo not drawn) [SB-3CT],IL-2 protein expression,[5],down regulated
same,"lung histology, mononuclear cellular infiltration",[6]; H&E lung sections after adoptive transfer of treated OT-1 cells,mononuclear cellular infiltration was minimal
same,quantity of total BAL cells,"[6]; seven days after adoptive transfer of 10 μM treated OT-I cells, vs vehicle (FIG. 8B)",no differences
same,quantity of neutrophils (Gr-1+) in BAL,"[6]; seven days after adoptive transfer, vs vehicle, p<0.01 (FIG. 8C)",decreased significantly
same,CD8+ Thy1.1+ (donor) cells in lung parenchyma,"[6]; vs vehicle, p<0.01 (FIG. 9A)",significantly fewer
same,CD25 expression on CD8+ Thy1.1+ T cells in lung,"[6]; vs vehicle, p<0.01 (FIG. 9B)",fewer of these cells expressed the activation marker CD25
same,MMP9 protein expression,[7],decreased
same,IL-2 transcript expression,[8],increased over time
same,calcium influx in calcium containing media,"[9]; calcium containing media, anti-CD3 (FIG. 4D)",dramatic influx of exogenous calcium
same,intracellular calcium flux (release from the ER),"[9]; calcium-free media, anti-CD3 10 μg/ml (FIG. 4C)",increased intracellular calcium flux
same,T cell proliferation,"[2]; 5-25 μM, anti-CD3 72 h, vs vehicle-treated cells (FIG. 2C)",dose-dependent decrease in proliferation
same,T cell proliferation with exogenous IL-2,"[2]; anti-CD3 plus exogenous murine IL-2, 72 h (FIG. 2E)",partial recovery of the proliferative response
same,CD25 transcript expression,[10],abrogated NFATc1 and CD25 transcript expression in a dose-dependent manner
same,T cell proliferation,"[11]; 5-25 μM, anti-CD3 72 h, vs vehicle-treated cells (FIG. 2D)",dose-dependent decrease in proliferation
same,T cell proliferation with exogenous IL-2,"[11]; anti-CD3 plus exogenous murine IL-2, 72 h (FIG. 2F)",partial recovery of the proliferative response
same,inhibition at 10 µM,"[12]; Mus musculus, T-cell, 10 μM treated CD4+25− cells, each ratio with untreated CD4+25− T cells, 72 hours (FIG. 7D), read-out: inhibition of T cell proliferation in co-culture",50%
same,induction of regulatory T cell function,[12]; increasing ratio of SB-3CT-treated cells (FIG. 7D),does not induce regulatory T cell function
same,mode of MMP9 inhibition,[13],tight-binding inhibition
same,antigen-specific proliferation,[14],completely abrogated the proliferative response
same,cell viability,[15],greater than 90%
same,suppressive function of treated Tregs,[16],retained their suppressive function
same,foxp3 transcripts,[17],increased
same,NFATc1 transcript expression,[18],abrogated NFATc1 and CD25 transcript expression in a dose-dependent manner

# Source: patent US20110293643A1, “COMPOUNDS AND METHODS FOR INHIBITING MMP2 AND MMP9” (priority 2009, published 2011)
